Key:
[1] = system: inner mitochondrial membrane potential; assay: Rhodamine 123 (Rh123) uptake, mitochondrial membrane potential of isolated mouse liver mitochondria; assay type: biochemical
From the text: We next evaluated the mitochondrial toxicity of the new triazole analogs by testing their ability to interfere with accumulation of the membrane-permeant cationic fluorescent dye rhodamine 123 (Rh123). The mitochondrial uptake of positively charged Rh123 is driven by the inside negative IMM potential, which is built by the respiratory chain or maintained by ATP hydrolysis if certain conditions are met. […] It should be noted, however, that toxicity for these compounds only occurs at ˜10-1000-fold higher concentrations compared to mtPTP inhibition, providing a good therapeutic window.
Assessment of mitochondrial membrane potential. Mitochondrial membrane potential—to evaluate toxicity—of isolated mouse liver mitochondria was assessed based on fluorescence quenching of the cationic fluorescent dye Rh123 upon its accumulation into mitochondrial matrix due to inside negative membrane potential. Compounds that interfere with the build-up or maintenance of IMM potential would shift Rh123 fluorescence to higher values compared to DMSO treated samples. Uncoupler FCCP was used to account for nonspecific fluorescence. First, 0.1 mL of SAB was dispensed to a 96-well black assay plate. A set of wells also contained 0.8 μm FCCP (to prevent Rh123 uptake). The test wells contained a range of concentrations (in 1:2 serial dilutions) of the compounds of interest or 2% DMSO. Then, 0.1 mL of 0.5 mg/mL mitochondria in SAB devoid of respiratory substrates but supplemented with 0.8 μm Rh123 were added to all wells of the assay plate. Fluorescence intensity (ex/em 485/535 nm) was read on a Tecan Infinite F200 plate reader for 7 min and value at 5 min was considered for analysis. EC50s±SE were determined with OriginPro software by applying Hill1 function fitting algorithm on average concentration response data of n=3 independent preparations.

[2] = system: col6a1 zebrafish morphants; assay: Survival of col6a1 zebrafish morphants; assay type: in vivo
From the text: In FIG. 6D, the left panel represents data from embryos injected with a scrambled morpholino (scrd_MO, open squares), Exon 9 col6a1 morpholino (col6a1_MO, closed squares) and col6a1_MO embryos treated with TR001 at 0.1 μm (open circles), 1.0 μm (open triangles), 10 μm (open diamonds). Right panel represents data from embryos injected with a scrambled morpholino (scrd_MO, open squares), Exon 9 col6a1 morpholino (col6a1_MO, closed squares) and col6a1_MO embryos treated with 63 at […] (closed circles), 1.0 μm (closed triangles), 10 μm (closed diamonds). Embryos were treated with oligomycin, FCCP, rotenone (R) and antimycin A (A) as indicated. Results are presented as mean±SEM. Both graphs report data from 5 independent experiments with n=20 for each treatment. Error bars are reported as SEM. FIG. 6E, Survival of DMSO-treated zebrafish injected with the scrambled morpholino (open squares), DMSO-treated col6a1 morphants (closed squares) and col6a1 morphants treated with TR001 (0.1 μm, open triangles; 1.0 μm, open circles; 10 μm, open diamonds) or 63 (0.1 μm, closed triangles; 1.0 μm, closed circles; 10 μm, closed diamonds) were recorded for 30 days. Treatment started at 21 hpf and repeated at 4 dpf (arrows). Data report the percentage of surviving fish and are mean±SEM from 3 independent experiments (n=15 for each condition in each set).
Finally, fish survival was also assessed. Fifty percent of col6a1 morphant embryos treated with 0.1 μm of TR001 survived 7 days longer than col6a1 morphants treated with DMSO (p<0.0001 from 3 to 12 dpf), and 20% were still alive at 30 dpf (i.e., after 29 days of treatment) (FIG. 6E).
Morpholino antisense injection and treatment. Knock-down of col6a1 gene expression was obtained with a previously published morpholino ^[25] with sequence GAGAGCGGAAGACGAACCTTCATTC (SEQ ID NO: 2; GeneTools, Inc.). A control morpholino with no sequence homology in the zebrafish genome was used in parallel (CCTCTTACCTCAGTTACAATTTATA; SEQ ID NO: 3). Zebrafish eggs from wild-type matings were injected at the 1-2 cell stage with approximately 10 nL of 0.1 mm morpholino solution (corresponding to 4 ng of morpholino) using a WPI pneumatic PicoPump PV820 injector (World Precision Instruments, Inc.). Zebrafish embryos were dechorionated at 20 hours post fertilization (hpf) and treated at 21 hpf with increasing doses (0.1, 1 and 10 μm) of both TR001 and 63 compounds dissolved in fish water with 1% DMSO (vehicle).
Survival. Zebrafish survival was monitored every 3 days for 30 days. Drug treatment with both TR001 and 63 dissolved in fish water with 1% DMSO started at 21 hpf. After 3 days of treatment (4 days post fertilization, dpf), zebrafish were moved to a bigger tank (50 mL) with fresh compounds dissolved in 1% DMSO. As a control vehicle, fish water with 1% DMSO was used.

[3] = Plasma stability determination in mouse plasma; assay type: in vitro ADME
Procedure: Plasma stability determination. The degradation of TR001 in the presence of mouse plasma (from Innovative Research) was used to predict the plasma stability of the compound to esterase catalyzed hydrolysis. A positive control for plasma cholinesterase, propantheline bromide, was included in all assays. Briefly, murine plasma was incubated with 1 μm TR001. Aliquots were removed at t=0, 5, 15, 30, and 60 and 120 min and quenched with acetonitrile containing structurally related compound (TR073) as the internal standard. The amount of TR001 remaining in the supernatant was assessed by LC-MS/MS in multiple reaction monitoring mode (MRM) using a 4000 QTRAP (SCIEX) with electrospray ionization source. The instrument was operated in negative mode with source parameters: source voltage […], GS1 50, GS2 50, CUR 30, TEM 650 and CAD gas MED. Optimal MRM transitions were obtained by direct infusion of the pure compound into the source. The mass spectrometer was interfaced to a Shimadzu (Columbia, MD) SIL-20AC XR auto-sampler maintained at 35° C. followed by 2 LC-20AD XR LC pumps. The internal standard and compound of interest were resolved using a Gemini-NX C18 50×2.1 mm column (Phenomenex) with 0.1% formic acid (solvent A) and 0.1% formic acid in acetonitrile (solvent B). The injection volume was 10 μL at a flow rate of 0.75 mL/min. The gradient elution was 10% B to 95% B over 5 min and held at 95% for 1 min before returning to start conditions. The column was maintained at 40° C. using a Shimadzu CTO-20AC column oven. Data were acquired using Analyst 1.6.2 and analyzed using Multiquant 3.0.1 software. The first-order rate constant for substrate depletion was determined from a linear least squares fit of the natural log of the percent parent compound remaining versus time. The rate constant was used to calculate the plasma half-life as an indicator of stability.

In the case of Cc1ccc(Cl)cc1NC(=O)c1cn(-c2ccc(F)c(O)c2)nn1 [TR001, N-(5-chloro-2-methylphenyl)-1-(4-fluoro-3-hydroxyphenyl)-1H-1,2,3-triazole-4-carboxamide], the “interference with buildup of IMM potential (in words)” value ([1]; Rh123 uptake assay) is reported as “did not interfere with IMM potential”, the EC50 ([1]; interference with Rh123 uptake to mitochondria, average ± SEM, n = 3, read-out: Rh123 uptake EC50) is reported as > 40 µM and the “days longer survival of fifty percent of embryos than DMSO treated morphants” value ([2]; 0.1 μm) is reported as 7 days. The “percent still alive at 30 dpf” value ([2]; 0.1 μm, after 29 days of treatment) was 20%, the “survival (in words)” value ([2]; 1 μm) was “effective at improving survival rate” and the “survival (in words)” value ([2]; 10 μm) was “ineffective”. For the same molecule, the “fold increase in plasma stability compared to 63” value ([3]; TR001 vs 63) was 47 fold and the half-life at 1 µM ([3]; mouse, read-out: Mouse Plasma t1/2) was 16.5 h.

Reference: patent publication US12398110B2, “Second generation inhibitors of mitochondrial permeability transition pore with improved plasma stability” (Oregon Health & Science University, priority 2019, dated 2025)
